Data on one compound can be found in PMC9405973, “Altered Conformational Landscape upon Sensing Guanine Nucleotides in a Disease Mutant of Elongation Factor-like 1 (EFL1) GTPase” (Biomolecules, 2022).

The test has as its target T1, Efl1 R1086Q in complex with Sdo1 and 60S subunits (Saccharomyces cerevisiae, UniProt P53893, R1086Q).
T1 construct: made in house; host or cells: Efl1: Saccharomyces cerevisiae; Sdo1: Escherichia coli C41; 60S subunits purified from S. cerevisiae strain JD1370
T1 sequence (P53893 1-1110 R1086Q): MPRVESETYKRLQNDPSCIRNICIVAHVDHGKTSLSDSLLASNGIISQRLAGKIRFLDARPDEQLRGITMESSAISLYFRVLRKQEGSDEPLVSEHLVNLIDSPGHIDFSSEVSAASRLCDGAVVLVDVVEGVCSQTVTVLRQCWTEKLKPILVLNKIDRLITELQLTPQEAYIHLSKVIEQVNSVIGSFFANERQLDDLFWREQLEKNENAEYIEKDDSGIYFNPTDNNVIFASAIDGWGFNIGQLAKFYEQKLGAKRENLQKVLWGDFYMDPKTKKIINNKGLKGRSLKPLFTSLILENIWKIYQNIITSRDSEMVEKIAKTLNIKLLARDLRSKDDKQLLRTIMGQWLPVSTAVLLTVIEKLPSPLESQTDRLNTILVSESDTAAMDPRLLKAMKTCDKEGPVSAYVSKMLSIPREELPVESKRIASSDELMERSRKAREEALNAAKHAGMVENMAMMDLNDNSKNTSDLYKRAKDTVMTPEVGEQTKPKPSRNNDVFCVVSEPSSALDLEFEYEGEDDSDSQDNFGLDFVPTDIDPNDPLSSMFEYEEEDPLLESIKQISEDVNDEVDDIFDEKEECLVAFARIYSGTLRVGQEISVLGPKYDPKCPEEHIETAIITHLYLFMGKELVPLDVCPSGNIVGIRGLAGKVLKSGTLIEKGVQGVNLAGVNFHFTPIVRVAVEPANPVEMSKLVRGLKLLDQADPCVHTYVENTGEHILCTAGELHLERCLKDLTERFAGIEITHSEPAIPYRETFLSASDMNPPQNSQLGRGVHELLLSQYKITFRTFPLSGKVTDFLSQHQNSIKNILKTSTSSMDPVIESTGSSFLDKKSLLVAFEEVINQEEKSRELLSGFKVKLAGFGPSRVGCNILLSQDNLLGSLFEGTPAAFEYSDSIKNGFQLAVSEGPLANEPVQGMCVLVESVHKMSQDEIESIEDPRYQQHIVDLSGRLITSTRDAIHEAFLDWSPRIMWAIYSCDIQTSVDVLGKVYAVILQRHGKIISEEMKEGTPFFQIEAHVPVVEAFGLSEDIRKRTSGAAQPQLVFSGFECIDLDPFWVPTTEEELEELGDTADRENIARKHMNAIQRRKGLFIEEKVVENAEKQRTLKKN
T1 sequence (Q07953 1-250 partner): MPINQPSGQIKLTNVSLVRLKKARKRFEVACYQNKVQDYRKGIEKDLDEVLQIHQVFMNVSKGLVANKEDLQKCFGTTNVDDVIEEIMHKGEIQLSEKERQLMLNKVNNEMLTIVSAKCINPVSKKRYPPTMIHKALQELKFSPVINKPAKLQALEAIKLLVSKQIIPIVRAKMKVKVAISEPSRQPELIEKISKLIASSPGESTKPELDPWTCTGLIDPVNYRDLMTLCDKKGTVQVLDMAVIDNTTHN
The test is described as follows: Steady state fluorescence binding of mant-GTP to Efl1 R1086Q in complex with Sdo1 and 60S subunits. The conditions noted are these: 25 °C, one-binding-site model; read-out: dissociation constant (Kd). As for the experimental part:
We measured the binding of different Efl1 constructs present in complex with Sdo1 and 60S subunits to the fluorescence GTP analogue, mant-GTP, by following the increase in the fluorescence signal after excitation at 355 nm. Fluorescence intensities were plotted as a function of increasing nucleotide concentrations, and the dissociation constant (Kd) was calculated by fitting the data to a one-binding-site model (Supplementary Figure S1B).
Hydrolysis of GTP was measured using the Enzchek Phosphate Assay kit (Molecular Probes) as described by Webb. Standard reactions consisted of 100 µL containing 6 µM of Efl1 R1086Q and Efl1 L910K, 0.3 mM MESG, 1.0 U purine nucleoside phosphorylase (PNP) and the indicated amounts of GTP. […]
Reactions were initiated and the GTPase was added after 3 min. Time courses were followed by recording the change in absorbance at 360 nm in a Cary 60 UV -Vis spectrophotometer (Agilent Technologies). Background absorbance was recorded prior to the addition of the GTPase and subtracted from the sample signals. The slope of the measured time courses corresponded to the GTP hydrolysis rate. […] Data were analysed by nonlinear regression to the M ichaelis-Menten equation with the program Origin Version 5.0 (OriginLab, Co., Northampton, MA). […]
Steady state fluorescence measurements […]
Maximum emission at 440 nm was replotted as a function of nucleotide concentration and analysed

By Kd is commonly meant the constant that tells how readily two partners part at equilibrium.

Turning to `CNc1ccccc1C(=O)O[C@H]1[C@@H](O)[C@H](n2cnc3c(=O)[nH]c(N)nc32)O[C@@H]1COP(=O)(O)OP(=O)(O)OP(=O)(O)O` [mant-GTP], the Kd is 32 µM.
